# Read-outs that look alike come from different tables or passages of the source.
# Columns and labels:
# [1] = tested on: 3D7 strain of Plasmodium falciparum; assay: In vitro antimalarial activity, 48-h [3H]-hypoxanthine incorporation assay; assay type: cell-based
# Procedure: The 3D7 strain of Plasmodium falciparum was used in this study. This strain is known to be […] Parasites were maintained in continuous culture using the method of Jensen and Trager^4. […] Stock drug solutions were prepared in 100% dimethylsulphoxide (DMSO) and diluted to the appropriate concentration using complete medium. Assays were performed in sterile 96-well microlitre plates, each plate contained 200 μl of parasite culture (2% parasitemia, 0.5% haematocrit) with or without 10 μl drug dilutions. Each drug was tested in triplicate and parasite growth compared to control wells (which constituted 100% parasite growth). […] IC50 values were calculated by interpolation of the probit transformation of the log dose-response curve.
# [2] = tested on: Salmonella typhimurium TA1535/pSK1002; assay: Salmonella typhimurium SOS/umu genotoxicity assay
# Description: (§1) This assay is based on the ability of DNA damaging agents to induce the expression of the umu operon. The Salmonella strains have a plasmid pSK1002 which carries an umuC-lacZ fused gene that produces a hybrid protein with β-galactosidase activity and whose expression is controlled by the umu regulatory region.
# [3] = tested on: Salmonella typhimurium NM2009; assay: Salmonella typhimurium SOS/umu genotoxicity assay
# Description: as §1
# [4] = 3D7, 3D7 strain, mean of triplicate results, Table 5, read-out: Mean IC50
# [5] = 3D7, sulfonamide dispiro 1,2,4,5-tetraoxanes, Table 8, read-out: Mean IC50
SMILES,melting point [°C],"IC50 [1, 4] [nM]",other results
"COC(=O)[C@@H](NC(=O)CC1CCC2(CC1)OOC1(OO2)C2CC3CC(C2)CC1C3)C(C)C (stereo in doubt) [Tetraoxane 29j, Adamantyl acetamide]",108 to 110,,
"C[C@@H]1CC[C@H]2[C@@H](C)C(=O)O[C@@H]3O[C@@]4(C)CC[C@@H]1[C@]32OO4 [Artemisinin, reference compound]",,9.5,"IC50 [1, 5]: 9.2 nM"
"O=C1CCC2(CC1)OOC1(CCCCC1)OO2 [Tetraoxane 10, 7,8,15,16-Tetraoxa-dispiro[5.2.5.2]hexadecan-3-one]",78 to 80,6,
"O=C1CCC2(CC1)OOC1(CCCCCCCCCCC1)OO2 [Tetraoxane 11, 7,8,21,22-Tetraoxa-dispiro[5.2.11.2]docosan-3-one]",108 to 110,,
"O=C1CCC2(CC1)OOC1(OO2)C2CC3CC(C2)CC1C3 [Tetraoxane 12, adamantane tetraoxane ketone]",156 to 158,,
"C1CCC2(CC1)OOC1(CCC(NC3CC3)CC1)OO2 [Tetraoxane 14, Cyclopropyl-(7,8,15,16-tetraoxa-dispiro[5.2.5.2]hexadec-3-yl)-amine]",,20,
"C1CCC2(CC1)OOC1(CCC(N3CCOCC3)CC1)OO2 [Tetraoxane 19, 4-(7,8,15,16-Tetraoxa-dispiro[5.2.5.2]hexadec-3-yl)-morpholine]",,29.4,
"CCOC(=O)CC1CCC2(CC1)OOC1(CCCCC1)OO2 [Tetraoxane 27a, (7,8,15,16-Tetraoxa-dispiro[5.2.5.2]hexadec-3-yl)acetic acid ethyl ester]",,24.2,
"O=C(CC1CCC2(CC1)OOC1(CCCCC1)OO2)NCCN1CCCC1 [Tetraoxane 27d, N-(2-Pyrrolidin-1-yl-ethyl)-2-(7,8,15,16-tetraoxa-dispiro[5.2.5.2]-hexadec-3-yl)-acetamide]",110 to 112,19.1,
"O=C(CC1CCC2(CC1)OOC1(CCCCC1)OO2)NCCN1CCCCC1 [Tetraoxane 27e, N-(2-Piperidin-1-yl-ethyl)-2-(7,8,15,16-tetraoxa-dispiro[5.2.5.2]-hexadec-3-yl)-acetamide]",68 to 78,19.2,
"O=C(CC1CCC2(CC1)OOC1(CCCCC1)OO2)NCCN1CCOCC1 [Tetraoxane 27f, N-(2-Morpholin-4-yl-ethyl)-2-(7,8,15,16-tetraoxa-dispiro[5.2.5.2]-hexadec-3-yl)-acetamide]",,19.1,
"CCN(CC)CCNC(=O)CC1CCC2(CC1)OOC1(CCCCC1)OO2 [Tetraoxane 27g, N-(2-Diethylamino-ethyl)-2-(7,8,15,16-tetraoxa-dispiro[5.2.5.2]-hexadec-3-yl)-acetamide]",,5.15,
"O=C(CC1CCC2(CC1)OOC1(CCCCCCCCCCC1)OO2)NC1CC1 [Tetraoxane 28c, N-Cyclopropyl-2-(7,8,21,22-tetraoxa-dispiro[5.2.11.2]docos-3-yl)-acet-amide]",136 to 138,18.7,
"O=C(CC1CCC2(CC1)OOC1(CCCCCCCCCCC1)OO2)NCCN1CCCC1 [Tetraoxane 28d, N-(2-Pyrrolidin-1-yl-ethyl)-2-(7,8,21,22-tetraoxa-dispiro[5.2.11.2]do-cos-3-yl)-acetamide]",108 to 110,,
"O=C(CC1CCC2(CC1)OOC1(CCCCCCCCCCC1)OO2)NCCN1CCCCC1 [Tetraoxane 28e, N-(2-Piperidin-1-yl-ethyl)-2-(7,8,21,22-tetraoxadispiro[5.2.11.2]-docos-3-yl)-acetamide]",96 to 98,,
"O=C(CC1CCC2(CC1)OOC1(CCCCCCCCCCC1)OO2)NCCN1CCOCC1 [Tetraoxane 28f, N-(2-Morpholin-4-yl-ethyl)-2-(7,8,21,22-tetraoxa-dispiro[5.2.11.2]do-cos-3-yl)-acetamide]",78 to 80,,
"CCN(CC)CCNC(=O)CC1CCC2(CC1)OOC1(CCCCCCCCCCC1)OO2 [Tetraoxane 28g, N-(2-Diethylamino-ethyl)-2-(7,8,21,22-tetraoxa-dispiro[5.2.11.2]-docos-3-yl)-acetamide]",64 to 66,,
"O=C(CC1CCC2(CC1)OOC1(CCCCCCCCCCC1)OO2)N1CCOCC1 [Tetraoxane 28h, 1-Morpholin-4-yl-2-(7,8,21,22-tetraoxa-dispiro[5.2.11.2]docos-3-yl)-ethanone]",118 to 120,23.7,
"O=C(CC1CCC2(CC1)OOC1(CCCCCCCCCCC1)OO2)N1CCSCC1 [Tetraoxane 28i, 2-(7,8,21,22-Tetraoxa-dispiro[5.2.11.2]docos-3-yl)-1-thiomorpholin-4-yl-ethanone]",108 to 110,26.9,
O=C(CC1CCC2(CC1)OOC1(OO2)C2CC3CC(C2)CC1C3)NCCN1CCCC1 (stereo not shown) [Tetraoxane 29d],142 to 144,,
"O=C(CC1CCC2(CC1)OOC1(OO2)C2CC3CC(C2)CC1C3)NCCN1CCCCC1 (stereo not shown) [Tetraoxane 29e, N-(2-Piperidin-1-yl-ethyl)-[adamantyl]acetamide]",119 to 121,,

SMILES,melting point [°C],"IC50 [1, 4] [nM]",other results
"O=C(CC1CCC2(CC1)OOC1(OO2)C2CC3CC(C2)CC1C3)N1CCSCC1 (stereo not shown) [Tetraoxane 29i, Tetraoxa-dispiro-(adamantly)-thiomorpholin-4-yl-ethanone]",150 to 152,5.9,
O=C(CC1CCC2(CC1)OOC1(OO2)C2CC3CC(C2)CC1C3)N1CCCCC1 (stereo not shown) [Tetraoxane 29m],,0.5,
CC(C)CN1CCN(C(=O)CC2CCC3(CC2)OOC2(OO3)C3CC4CC(C3)CC2C4)CC1 (stereo not shown) [Tetraoxane 29s],,2.7,
"O=C(CC1CCC2(CC1)OOC1(CCCCCCCCCCC1)OO2)N1CCS(=O)(=O)CC1 [Tetraoxane 31, 1-(1,1-Dioxo-1λ^6-thiomorpholin-4-yl)-2-(7,8,21,22-tetraoxa-dispiro[5.2.11.2]docos-3-yl)-ethanone]",170 to 172,92.6,
"O=C(CC1CCC2(CC1)OOC1(OO2)C2CC3CC(C2)CC1C3)N1CCS(=O)(=O)CC1 (stereo not shown) [Tetraoxane 32, 1-(1,1-Dioxo-1λ^6-thiommpholin-4-yl)-2-tetraoxa-dispiro-adamantyl ethanone]",189 to 191,24.2,
"O=C1CCN(C(=O)N2CCOCC2)CC1 [Tetraoxane 34f, 1-(Morpholine-4-carbonyl)-piperidin-4-one]",,,"IC50 ([1]; 3D7, read-out: Mean IC50): 4.7 nM"
"O=C(N1CCCCC1)N1CCC(OO)(OO)CC1 [Tetraoxane 34i, (4,4-dihydroperoxypiperidin-1-yl)(piperidin-1-yl)methanone]",,,"IC50 ([1]; 3D7, read-out: Mean IC50): 7.2 nM"
O=C(N1CCCCC1)N1CCC2(CC1)OOC1(CCCCC1)OO2 [Tetraoxane 34k],,,"IC50 ([1]; 3D7, read-out: Mean IC50): 7 nM"
CS(=O)(=O)N1CCC2(CC1)OOC1(OO2)C2CC3CC(C2)CC1C3 [Tetraoxane 39a],,,"IC50 [1, 5]: 10.2 nM"
CC(C)S(=O)(=O)N1CCC2(CC1)OOC1(OO2)C2CC3CC(C2)CC1C3 [Tetraoxane 39c],,,"IC50 [1, 5]: 5.87 nM"
O=S(=O)(CC(F)(F)F)N1CCC2(CC1)OOC1(OO2)C2CC3CC(C2)CC1C3 [Tetraoxane 39e],,,"IC50 [1, 5]: 14.3 nM"
O=S(=O)(c1ccc(F)cc1)N1CCC2(CC1)OOC1(OO2)C2CC3CC(C2)CC1C3 [Tetraoxane 39g],,,"IC50 [1, 5]: 16.7 nM"
O=S(=O)(c1ccc(Cl)cc1)N1CCC2(CC1)OOC1(OO2)C2CC3CC(C2)CC1C3 [Tetraoxane 39h],,,"IC50 [1, 5]: 22.7 nM"
O=S(=O)(c1ccc(C(F)(F)F)cc1)N1CCC2(CC1)OOC1(OO2)C2CC3CC(C2)CC1C3 [Tetraoxane 39i],,,"IC50 [1, 5]: 20.7 nM"
CS(=O)(=O)N1CCC2(CC1)OOC1(CCCCCCCCCCC1)OO2 [Tetraoxane 40a],,,"IC50 [1, 5]: 27.8 nM"
CCS(=O)(=O)N1CCC2(CC1)OOC1(CCCCCCCCCCC1)OO2 [Tetraoxane 40b],,,"IC50 [1, 5]: 29.1 nM"
CC(C)S(=O)(=O)N1CCC2(CC1)OOC1(CCCCCCCCCCC1)OO2 [Tetraoxane 40c],,,"IC50 [1, 5]: 86.4 nM"
O=S(=O)(c1ccccc1)N1CCC2(CC1)OOC1(CCCCCCCCCCC1)OO2 [Tetraoxane 40d],,,"IC50 [1, 5]: 131 nM"
"CCS(=O)(=O)N1C2CCC1CC1(C2)OOC2(OO1)C1CC3CC(C1)CC2C3 (stereo not shown) [Tetraoxane 41d, Tropinone derived 1,2,4,5-tetraoxane]",,,"IC50 [1, 5]: 60.6 nM"
"CC(C)(C)NCc1cc(Nc2ccnc3cc(Cl)ccc23)ccc1Cl [Tetraoxane D535, 4′Chloro N-tertbutyl amodiaquin, reference compound]",,,MCE TA1535 (Maximum Co w/o effects on bacteria growth or β-galactosidase production) [2]: 140 µM; Max. Fold Increase ([2]; −S9): 1.10 ± 0.07 fold; Potential genotox ([2]; −S9): NEG; MCE NM2009 (Maximum Co w/o effects on bacteria growth or beta-galactosidase production) [3]: 140 µM; Potential genotox [3]: NEG

# From patent US20100113436A1, “DISPIRO TETRAOXANE COMPOUNDS AND THEIR USE IN THE TREATMENT OF MALARIA AND/OR CANCER” (priority 2006, published 2010)
